According to US20100074968A1, “AGENT AND METHOD FOR TREATING CANCER COMPRISING STRONTIUM, AMINO ACID(S) AND MINERAL AGENT(S)” (HELSINGFORS INSTITUTION FÖR BIOMMUNTERAPI AB., priority 2003, published 2010):

Assays:
[1] = Effect of strontium intake on serum hormone levels in healthy individual(s); type: in vivo, human
Description: When healthy individuals were given 7 mg strontium chloride per day, the PRL level increased within two weeks 50-80% from a normal base value. […]
The effect of strontium intake on selected physiological reactions was evaluated by administering strontium alone or together with the full dietary support program described in table 1 to four prostate cancer patients, P1-P4, and to one healthy individual. The results are shown in table 4, which also gives the normal values for the measured hormones.

[2] = system: prostate cancer (CaP); assay: Strontium alone or with full dietary support program in prostate cancer patients: hormone/PSA levels and clinical course; type: in vivo, human
Description: In addition to the dietary biomodulating components prescribed (see Table 1), the patient ingested a daily amount of 7 mg of strontium oxide, contained in birch ash that they prepared at home and was taking continuously at a dose of about 8 g per day.
• 1. Oral administration of each (2-5 g/day) of respective L-amino acids: Arg, Asp, Glu, Gly, Lys and Ser in connection with meals. The amino acids are manufactured by Degussa Ag, Germany. • 2. […] Small physiologic amounts of vitamins: A, B, C, D, E, K, folic acid and lycopene. • 4. To improve lymphopoiesis and the immune defense of patients a diet containing prionfree neurogenic lipids (equivalent to approx. 50 g of brain) was recommended, (purchased and canned by Neurofood Ltd. Finland). • 5. All these dietary ingredients can be mixed together in yoghurt, forming a daily ration, using pre-packed pulvers. • 6. Dose-levels are adjusted based on clinical response as measured, and correlated to the patient's body weight.
The effect of strontium intake on selected physiological reactions was evaluated by administering strontium alone or together with the full dietary support program described in table 1 to four prostate cancer patients, P1-P4, and to one healthy individual.

[3] = long-lasting use for diagnostic purposes, i.v. dose up to 80 mg SrCl2; cited from earlier work
[4] = P0 without Sr for three weeks (after the Sr course)
[5] = healthy individual P0, after Sr 7 mg, 14 days
[6] = healthy individuals, 7 mg strontium chloride per day, two weeks
[7] = healthy persons, ingestion of strontium (in mg's)
[8] = patients diagnosed with prostate cancer, administration of strontium
[9] = laboratory pattern, orchiectomized patient P1 (No. 1), 7 mg strontium oxide daily plus dietary biomodulating components
[10] = patient P1, year 2003, 7 mg strontium oxide daily (birch ash) plus dietary biomodulating components

`[Cl-].[Cl-].[Sr+2]` [strontium chloride] showed a DHEAS [1, 4] of 2.7 µmol/L, an FSH [1, 4] of 11 IU/L and a PRL [1, 4] of 337 mU/L. The PSA [1, 4] was 0.4 µg/L, the “serum DHEA” value [1, 4] was 3.6 nmol/L and the DHEAS [1, 5] was 2.3 µmol/L. The FSH [1, 5] was 13 IU/L, the PRL [1, 5] was 389 mU/L and the PSA [1, 5] was 0.4 µg/L. The “serum DHEA” value [1, 5] was 9.8 nmol/L, the FSH level ([1]; healthy individuals, 7 mg strontium chloride per day) was “can increase or remain on a level exceeding normal levels” and the “serum DHEA level” value [1, 6] was “can show an increase in value”. The “serum DHEAS level” value [1, 6] was “decreased”, the “serum prolactin (PRL) level increase” value ([1]; healthy individuals, 7 mg strontium chloride per day, within two weeks, from normal base value) was 50-80% and the PRL increase [1, 7] was greater than 50%. The “decrease in DHEAS” value [1, 7] was roughly 40%, the DHEAS level [2, 8] was “decrease” and the FSH level [2, 8] was “increases”. For the same compound, the PSA level [2, 8] was “decrease”, the DHEAS ([2]; prostate cancer patient P2) was less than 0.8 µmol/L and the PRL ([2]; prostate cancer patient P2) was 852 mU/L. The PSA ([2]; prostate cancer patient P2) was 12.6 µg/L, the DHEAS ([2]; prostate cancer patient P3 ±) was 2.5 µmol/L and the FSH ([2]; prostate cancer patient P3 ±) was 12 IU/L. The PRL ([2]; prostate cancer patient P3 ±) was 568 mU/L, the PSA ([2]; prostate cancer patient P3 ±) was 12.7 µg/L and the “serum DHEA” value ([2]; prostate cancer patient P3 ±) was 4.3 nmol/L. The DHEAS ([2]; prostate cancer patient P4 ±) was less than 0.8 µmol/L, the FSH ([2]; prostate cancer patient P4 ±) was 13 IU/L and the PRL ([2]; prostate cancer patient P4 ±) was 1879 mU/L. For the same compound, the PSA ([2]; prostate cancer patient P4 ±) was 24.0 µg/L, the “serum DHEA” value ([2]; prostate cancer patient P4 ±) was 2.4 nmol/L and the harmful side effects [3] was “No harmful therapeutic side effects”.
With `[O-2].[Sr+2]` [strontium oxide] the Activin [2, 9] was 330 to 500 pg/mL, the DHEA [2, 9] was less than 2.0 nmol/L and the DHEAS [2, 9] was less than 0.8 µmol/L. The Inhibin [2, 9] was less than 7.8 pg/mL, the PRL [2, 9] was 15-95 mU/L and the PSA [2, 9] was less than 0.1 µg/L. For the same compound, the SHBG [2, 9] was 58 to 61 nmol/L, the Testost [2, 9] was 1.0 nmol/L and the “time until bone-metastases disappeared” value ([2]; patient P1, multiple bone-metastases) was “four”. For the same compound, the “time until bone-pain subsided” value ([2]; patient P1, multiple bone-metastases, from beginning of treatment) was 6 months, the DHEA value [2, 10] was “below 2.0” and the FSH level [2, 10] was “about 48 IU/l”. The “prolactin (PRL) value” [2, 10] was “about 97 mU/l”, the “serum DHEAS level” value ([2]; patient P1, year 2003, 7 mg strontium oxide daily (birch ash) plus dietary biomodulating components, below detectable limit) was less than 0.8 and the clinical condition ([2]; patient P1, year 2003, treatment since 1990) was “excellent clinical condition”.
